Laboratory results from patent US20080280849A1, “Synergic Combinations Comprising a Quinoline Compound and Other Hiv Infection Therapeutic Agents” (priority 2005, published 2008).
Read-outs that look alike come from different tables or passages of the source.

System: NL43 HIV-1 laboratory strain
Experiment: NL43 HIV-1 laboratory strain replication assay with HelaCD4+β-Gal indicator cells (P4 cells), CPRG development, CalcuSyn analysis
Assay type: cell-based
Protocol: Synergistic interactions between quinoline compounds (BA011FZ041) and either RT (zidovudine and nevirapine) or other integrase inhibitors (L-731,988) were investigated using a NL43 HIV-1 laboratory strain replication assay. Virus infectivity in the presence of inhibitors was monitored with HelaCD4+β-Gal indicator cells (P4 cells). Inhibition by combination of BA011FZ041 and other inhibitors was evaluated at three fixed molar BA011FZ041/Inhibitor ratios: 1:1, 1:2, and 2:1. Three independent experiments with triplicate data points were performed for each ratio. Interactions were calculated by the multiple drug effect equation of Chou and Talalay (Chou and Talalay, 1983; and Chou and Talalay, 1984) based on the median effect principle, using CalcuSyn® software (Biosoft, UK).
On the day prior to the test, 5,000 HeLaP4 cells per well are seeded in 100 μl of 10% FBS DMEM supplemented with […] penicillin, 100 μg/ml streptomycin and 0.5 mg/ml geniticin (G418). Otherwise, in the morning of the test, 10,000 HeLaP4 cells are seeded per well in 100 μl of 10% FBS DMEM supplemented with […] penicillin, 100 μg/ml streptomycin and 0.5 mg/ml geniticin (G418).
One plate of cells is used for the 2 drugs alone+half a plate per ratio tested is used for development with CPRG and, as necessary, an equivalent number of plates for the MTT toxicity test.
Several drug-drug ratios are tested: 1:1, 1:2, 2:1, 1:4 and 4:1.
Ratios are expressed relative to IC50 values. For the 1:1 ratio, the IC50 concentration for (BA011FZ041+drug X) is the IC50 concentration for BA011FZ041+the IC50 concentration for drug X.
For the 1:2 ratio, the IC50 concentration for (BA011FZ041+drug X) is the IC50 concentration for BA011FZ041+twice the IC50 concentration for drug X.
The form of BA011FZ041 tested is the sodium carbonate salt.
Further dilutions are also performed using PBS and are then distributed at 5 μl per well. • For DMSO: the molecules are resuspended at a concentration 200-fold higher than that finally required in the well so that DMSO be non toxic for the HeLa P4 cells. The quantity of DMSO is constant for each drug concentration tested.
In practice, initial dilutions are performed using DMSO, with these solutions then being rediluted fivefold in PBS or culture medium so as to obtain concentrations 40-fold higher than those finally required in the well. The solutions are then distributed at 5 μl per well.
Prior to infection, the wells are filled up to a final volume of 200 μl with 40 or 45 μl of medium.
NL4.3 viral supernatant has been produced by CaCl2 transfection of 293T cells. The HeLa P4 cells are infected with NL 4.3 HIV virus, with about 1 to 2 ng of P24 per well.
Depending on the P24 content of the virus used, a virus solution+10% FBS DMEM supplemented with […] penicillin, 100 μg/ml streptomycin and 0.5 mg/ml geniticin (G418) is prepared and is then distributed at 50 μl per well.
The plates are incubated at 37° C., 5% CO2, for 60 hours.
The CPRG (chlorophenol red-β-D-galactopyranoside) test is a […] test enabling measurement of the quantity of β-galactosidase produced during viral infection (the β-gal gene is under the control of the TAR element which in turn is controlled by the viral. TAT).
The supernatant is removed from the plates of HelaP4 cells. 100 μl of CPRG lysis buffer is added per well (for 110 wells: Na2HPO4 (0.5M) 1687 μL, NaH2PO4 (1M) 440 μL, KCl (1M) 110 μL, MgSO4 (1M) 220 μL, EDTA (0.5M) 55 μL, β-mercaptoethanol 39 μL, NP40 14 μL, water 8617 μL).
The cells are incubated for 10 minutes at 37° C. in order to obtain full cell lysis. The lysed wells are homogenized and 50 μl of each lysate is transferred into the corresponding well of another plate containing 100 μl reaction buffer (for 110 wells: pH 7.4 phosphate buffer (1M) 880 μL, MgCl2 99 μL, β-mercaptoethanol 77 μL, water 8140 μL, CPRG (250 mg of CPRG dissolved in 9.1 ml of Millipore water+455 μl pH 7.4 sodium phosphate buffer) 1833 μL).

Compound: Cc1ccnc2c1NC(=O)c1cccnc1N2C1CC1 [Nev]
- IC50 (Human immunodeficiency virus 1, NL43, Table 6, Ratio 1:1 series, drug alone, Mean, read-out: IC50 Nev, drug alone): 0.039 µM
- IC50 (Human immunodeficiency virus 1, NL43, Table 6, Ratio 1:2 series, drug alone, Mean, read-out: IC50 Nev, drug alone): 0.041 µM
- IC50 (Human immunodeficiency virus 1, NL43, Table 6, Ratio 2:1 series, drug alone, Mean, read-out: IC50 Nev, drug alone): 0.039 µM
- IC50 (Human immunodeficiency virus 1, NL43, in the mix with FZ41, Ratio 1:1, Mean, read-out: IC50 Nev, in the mix): 0.011 µM
- IC50 (Human immunodeficiency virus 1, NL43, in the mix with FZ41, Ratio 1:2, Mean, read-out: IC50 Nev, in the mix): 0.018 µM
- IC50 (Human immunodeficiency virus 1, NL43, in the mix with FZ41, Ratio 2:1, Mean, read-out: IC50 Nev, in the mix): 0.0063 µM

Compound: Cc1cn([C@H]2C[C@H](N=[N+]=[N-])[C@@H](CO)O2)c(=O)[nH]c1=O [ZVD, 3′-azido-3′-deoxythymidine]
- IC50 (Human immunodeficiency virus 1, NL43, Table 8, Ratio 1:1 series, drug alone, Mean, read-out: IC50 ZVD, drug alone): 0.029 µM
- IC50 (Human immunodeficiency virus 1, NL43, Table 8, Ratio 1:2 series, drug alone, Mean, read-out: IC50 ZVD, drug alone): 0.046 µM
- IC50 (Human immunodeficiency virus 1, NL43, Table 8, Ratio 2:1 series, drug alone, Mean, read-out: IC50 ZVD, drug alone): 0.044 µM
- IC50 (Human immunodeficiency virus 1, NL43, in the mix with FZ41, Ratio 1:1, Mean, read-out: IC50 ZVD, in the mix): 0.016 µM
- IC50 (Human immunodeficiency virus 1, NL43, in the mix with FZ41, Ratio 1:2, Mean, read-out: IC50 ZVD, in the mix): 0.028 µM
- IC50 (Human immunodeficiency virus 1, NL43, in the mix with FZ41, Ratio 2:1, Mean, read-out: IC50 ZVD, in the mix): 0.011 µM

Compound: COc1cc(C=Cc2ccc3ccc(C(=O)O)c(O)c3n2)cc(O)c1O [BA011FZ041, 8-hydroxy-2-[2-[(3,4-dihydroxy-5-methoxy-phenyl)ethenyl]]7-quinoline carboxylic acid]
- IC50 (Table 6, Ratio 1:1 series with Nev, drug alone, Mean, read-out: IC50 FZ41, drug alone): 1.6 µM
- IC50 (Table 6, Ratio 1:2 series with Nev, drug alone, Mean, read-out: IC50 FZ4, drug alone): 1.5 µM
- IC50 (Table 6, Ratio 2:1 series with Nev, drug alone, Mean, read-out: IC50 FZ41, drug alone): 1.5 µM
- IC50 (Table 8, Ratio 1:1 series with ZVD, drug alone, Mean, read-out: IC50 FZ41, drug alone): 1.4 µM
- IC50 (Table 8, Ratio 1:2 series with ZVD, drug alone, Mean, read-out: IC50 FZ41, drug alone): 1.7 µM
- IC50 (Table 8, Ratio 2:1 series with ZVD, drug alone, Mean, read-out: IC50 FZ41, drug alone): 1.7 µM
- IC50 (Table 10, Ratio 1:1 series with L-731,988, drug alone, Mean, read-out: IC50 FZ41, drug alone): 1.3 µM
- IC50 (Table 10, Ratio 1:2 series with L-731,988, drug alone, Mean, read-out: IC50 FZ41, drug alone): 1.3 µM
- IC50 (Table 10, Ratio 2:1 series with L-731,988, drug alone, Mean, read-out: IC50 FZ41, drug alone): 1.3 µM
- IC50 (in the mix with L-731,988, Ratio 1:1, Mean, read-out: IC50 FZ41, in the mix): 0.9 µM
- IC50 (in the mix with L-731,988, Ratio 1:2, Mean, read-out: IC50 FZ41, in the mix): 0.8 µM
- IC50 (in the mix with L-731,988, Ratio 2:1, Mean, read-out: IC50 FZ41, in the mix): 1.1 µM
- IC50 (in the mix with Nev, Ratio 1:1, Mean, read-out: IC50 FZ41, in the mix): 1.1 µM
- IC50 (in the mix with Nev, Ratio 1:2, Mean, read-out: IC50 FZ4, in the mix): 0.9 µM
- IC50 (in the mix with Nev, Ratio 2:1, Mean, read-out: IC50 FZ41, in the mix): 1.2 µM
- IC50 (in the mix with ZVD, Ratio 1:1, Mean, read-out: IC50 FZ41, in the mix): 0.8 µM
- IC50 (in the mix with ZVD, Ratio 1:2, Mean, read-out: IC50 FZ41, in the mix): 0.7 µM
- IC50 (in the mix with ZVD, Ratio 2:1, Mean, read-out: IC50 FZ41, in the mix): 1.1 µM

Compound: O=C(O)C(=O)CC(=O)c1cccn1Cc1ccc(F)cc1 [L-731,988, 4-[1-(4-fluorobenzyl)pyrrole-2-yl]-2,4-diketobutanoic acid]
- IC50 (Human immunodeficiency virus 1, NL43, Table 10, Ratio 1:1 series, drug alone, Mean, read-out: IC50 L-731,988, drug alone): 1.5 µM
- IC50 (Human immunodeficiency virus 1, NL43, Table 10, Ratio 1:2 series, drug alone, Mean, read-out: IC50 L-731,988, drug alone): 1.5 µM
- IC50 (Human immunodeficiency virus 1, NL43, Table 10, Ratio 2:1 series, drug alone, Mean, read-out: IC50 L-731,988, drug alone): 1.5 µM
- IC50 (Human immunodeficiency virus 1, NL43, in the mix with FZ41, Ratio 1:1, Mean, read-out: IC50 L-731,988, in the mix): 0.3 µM
- IC50 (Human immunodeficiency virus 1, NL43, in the mix with FZ41, Ratio 1:2, Mean, read-out: IC50 L-731,988, in the mix): 0.5 µM
- IC50 (Human immunodeficiency virus 1, NL43, in the mix with FZ41, Ratio 2:1, Mean, read-out: IC50 L-731,988, in the mix): 0.2 µM
